Data from US10004233B2, “Relating to treatment of water” (BWA WATER ADDITIVES UK LIMITED, priority 2015, dated 2018).

Assays:
[1] = test system: Desulfovibrio vulgaris; test: Log10 reduction of viable anaerobic bacteria in high-TDS phosphate buffer suspension (API RP 38 media vials); format: cell-based; conditions: TDS 30,000 mg l^−1, 5 = complete kill
Protocol: (§1) Aqueous systems inoculated with anaerobe and facultative anaerobe culture and having a total dissolved solids (TDS) concentration of 30,000 mg l^−1 were prepared and treated with treatment agents comprising: (a) a phosphonium compound and (b) an oxazolidine compound. The phosphonium compound (a) used was tri n-butyl n-tetradecyl phosphonium chloride (TTPC). The oxazolidine compound (b) was 4,4-dimethyloxazolidine (DMO).
(§2) A suspension of Desulfovibrio vulgaris plus Enterobacter aerogenes bacteria containing from 1×10^5 to 1×10^6 cells/mL was prepared in sterile pH 8 phosphate buffer containing sodium chloride to give the desired total dissolved solids (TDS) concentration. Aliquots of this suspension were dosed with the indicated concentrations of the compounds (a) and (b) with the concentrations being measured as ppm active. The mixtures were allowed to stand at room temperature. At the designated contact times, each mixture was sampled to determine the total number of viable cells of both Desulfovibrio vulgaris and Enterobacter aerogenes by serial 10-fold dilution into API RP 38 media vials and anaerobic acid producing media vials, respectively. The vials were incubated at 37° C. for 72 hours. Results were recorded as log10 reduction in the viable count versus the control.
(§3) The efficacy of the treatment agents was evaluated by measuring the Log10 Reduction of the anaerobic bacterium Desulfovibrio vulgaris and the facultative anaerobic bacterium Enterobacter aerogenes after contact times of 1 hour, 4 hours and 24 hours as detailed in Table 1. For TTPC the stated ppm value relates to the amount of TTPC added (active). For the 4,4-dimethyloxazolidine the stated ppm relates to the amount of 4,4-dimethyloxazolidine added (active).

[2] = test system: Enterobacter aerogenes; test: Log10 reduction of viable facultative anaerobic bacteria in high-TDS phosphate buffer suspension (anaerobic acid producing media vials); format: cell-based; conditions: TDS 30,000 mg l^−1, 8 = complete kill
Protocol: as §1, §2, §3

[3] = DMO 40 ppm active, contact time 1 hour
[4] = DMO 40 ppm active, contact time 4 hours
[5] = DMO 40 ppm active, contact time 24 hours
[6] = DMO 80 ppm active, contact time 1 hour
[7] = DMO 80 ppm active, contact time 4 hours
[8] = DMO 80 ppm active, contact time 24 hours
[9] = TTPC 3.125 ppm active, contact time 1 hour
[10] = TTPC 3.125 ppm active, contact time 4 hours
[11] = TTPC 3.125 ppm active, contact time 24 hours
[12] = TTPC 6.25 ppm active, contact time 1 hour
[13] = TTPC 6.25 ppm active, contact time 4 hours
[14] = TTPC 6.25 ppm active, contact time 24 hours

CC1(C)COCN1 [DMO, 4,4-dimethyloxazolidine]
1: Log10 Reduction Anaerobes [1, 3] | Log10 Reduction Anaerobes [1, 4] | Log10 Reduction Anaerobes [1, 5] | Log10 Reduction Anaerobes [1, 6]
0: Log10 Reduction Facultative Anaerobes [2, 3] | Log10 Reduction Facultative Anaerobes [2, 4] | Log10 Reduction Facultative Anaerobes [2, 5] | Log10 Reduction Facultative Anaerobes [2, 6] | Log10 Reduction Facultative Anaerobes [2, 7] | Log10 Reduction Facultative Anaerobes [2, 8]
2: Log10 Reduction Anaerobes [1, 7] | Log10 Reduction Anaerobes [1, 8]

CCCCCCCCCCCCCC[P+](CCCC)(CCCC)CCCC.[Cl-] [TTPC, tri n-butyl n-tetradecyl phosphonium chloride]
1: Log10 Reduction Anaerobes [1, 9] | Log10 Reduction Facultative Anaerobes [2, 9]
3: Log10 Reduction Facultative Anaerobes [2, 12]
2: Log10 Reduction Anaerobes [1, 12] | Log10 Reduction Facultative Anaerobes [2, 10]
4: Log10 Reduction Facultative Anaerobes [2, 11] | Log10 Reduction Facultative Anaerobes [2, 13]
5: Log10 Reduction Anaerobes [1, 10] | Log10 Reduction Anaerobes [1, 11] | Log10 Reduction Anaerobes [1, 13] | Log10 Reduction Anaerobes [1, 14] | Log10 Reduction Facultative Anaerobes [2, 14]
